Test results published in US20210330578A1, “TOPICAL COSMETIC COMPOSITIONS” (Mary Kay Inc., priority 2020, published 2021).

Test system: filaggrin
Test: Filaggrin protein expression in keratinocytes (PROTEINSIMPLE SIMON western blotting bioassay)
Assay type: cell-based, human
Conditions: 1% tested, 24 to 36 hours
Description: Changes in the production of filaggrin in keratinocytes due to each of the active ingredients, any one of the combination of ingredients, or compositions having said combinations disclosed in the specification can be measured. Filaggrin is the precursor to Natural Moisturizing Factor (NMF) in the skin. Increased NMF increases the moisture content of the skin.
Filaggrin production in treated and non-treated keratinocytes was determined using the PROTEINSIMPLE® SIMON™ western blotting bioassay that employs an antibody specific for filaggrin to quantitatively detect filaggrin concentration in keratinocyte cell lysates. The treated group of keratinocytes was treated with 1% of calcium or an extract of Laminaria saccharina, marine plankton, Opuntia ficus-indica, Imperata cylindrical, or Verbena officinalis (1%).
For each sample, normal human epidermal keratinocytes (NHEK) were grown in EPI-200—Mattek EPILIFE™ growth media with calcium from Life Technologies (M-EP-500-CA). […] The protein concentrations of the samples were determined and used to normalize the samples. The lysates were stored at −80° C. until used in the quantification assay. […] The chemiluminescent development was stopped at a specific time and the intensity of the chemiluminescent signal was measured (reported as Area Under Curve, AUC in Table 3 below) and compared to controls.

## [Ca+2] [Calcium]
NHEK, compared to controls
  % Ctrl (increase in filaggrin protein expression): 15.60%
Normal human epidermal keratinocytes (NHEK), control AUC 70848
  AUC (intensity of the chemiluminescent signal, filaggrin): 81899
